Measured values: patent US12162869B2, “Type II crystalline topramezone sodium salt hydrate, preparation method therefor and use thereof” (Rotam Agrochem International Company Limited, priority 2022, dated 2024)

What was measured:
[1] = aqueous preparation; reported in US 2010075853 A; cited from earlier work
[2] = Heat storage experiment of the preparation product; assay type: physicochemical
Experimental: In the preparation of solid preparations containing topramezone, the crystalline form I of the topramezone sodium salt can be better granulated compared with the anhydrous substance of the topramezone sodium salt. […] However, the preparation of type I topramezone sodium salt hydrate requires standing in water or a water-containing mixed solvent at −10° C.-15° C. for 10-48 h to complete the crystallization.

[3] = Product performance comparison: storage of preparation samples at 54° C. for 2 weeks; assay type: physicochemical; settings: stored at 54° C. for 2 weeks; characters before and after storage compared
Experimental: The preparation samples 1, 2, 3, 4, 5, 6, 7, 8, 9, 10, 11 and 12 prepared in Application examples 1-4 are stored at 54° C. for 2 weeks, respectively. The character changes of each sample before and after storage are compared.

In the case of `Cc1c(C(=O)c2cnn(C)c2[O-])ccc(S(C)(=O)=O)c1C1=NOCC1.[Na+]` [topramezone sodium salt], the “Activity compared with topramezone acid” value [1] is given as “equivalent to or even higher than that of topramezone acid”.

In the case of `Cc1c(C(=O)c2cnn(C)c2[O-])ccc(S(C)(=O)=O)c1C1=NOCC1.Cc1c(C(=O)c2cnn(C)c2[O-])ccc(S(C)(=O)=O)c1C1=NOCC1.O.O.O.O.O.[Na+].[Na+]` [type I topramezone sodium salt hydrate, 2.5 water topramezone sodium salt hydrate], the “Stability of the preparation in heat storage, compared with the preparation based on the anhydrous substance” value [2] is reported as “more stable”.

For “type II crystalline topramezone sodium salt hydrate”, the Character changes [3] was “stable after storage”.
